This is an account of results in ChEMBL document CHEMBL5696442, “Discovery of type II inhibitors of TGFβ-activated kinase 1 (TAK1) and mitogen-activated protein kinase kinase kinase kinase 2 (MAP4K2)” (J Med Chem, 2015).

SMILES strings stand for the structures. The source made the active and inactive calls. No cut-off for these calls is given here.

Experiment [1] has as its target Mitogen-activated protein kinase kinase kinase kinase 4 (Homo sapiens, UniProt O95819). Description: Inhibition of MAP4K4 (unknown origin) at 1 uM by Ambit Kinomescan binding assay relative to control.
Experiment [2] has as its target Insulin-like growth factor 1 receptor (Homo sapiens) (UniProt P08069). Put plainly: Inhibition of IGF1R (unknown origin) at 1 uM by Ambit Kinomescan binding assay relative to control; values are per cent of control.
Experiment [3] deals with Proto-oncogene tyrosine-protein kinase Src (Homo sapiens, UniProt P12931). Put plainly: Inhibition of SRC (unknown origin) at 10 uM by Ambit Kinomescan binding assay relative to control; values are per cent of control.
Experiment [4] deals with Serine/threonine-protein kinase PAK 6 (Homo sapiens) (UniProt Q9NQU5). Description: Inhibition of PAK6 (unknown origin) at 10 uM by Ambit Kinomescan binding assay.
In experiment [5] the target is T1, Serine/threonine-protein kinase LATS1 (Homo sapiens) (UniProt O95835).
T1 sequence (whole entry): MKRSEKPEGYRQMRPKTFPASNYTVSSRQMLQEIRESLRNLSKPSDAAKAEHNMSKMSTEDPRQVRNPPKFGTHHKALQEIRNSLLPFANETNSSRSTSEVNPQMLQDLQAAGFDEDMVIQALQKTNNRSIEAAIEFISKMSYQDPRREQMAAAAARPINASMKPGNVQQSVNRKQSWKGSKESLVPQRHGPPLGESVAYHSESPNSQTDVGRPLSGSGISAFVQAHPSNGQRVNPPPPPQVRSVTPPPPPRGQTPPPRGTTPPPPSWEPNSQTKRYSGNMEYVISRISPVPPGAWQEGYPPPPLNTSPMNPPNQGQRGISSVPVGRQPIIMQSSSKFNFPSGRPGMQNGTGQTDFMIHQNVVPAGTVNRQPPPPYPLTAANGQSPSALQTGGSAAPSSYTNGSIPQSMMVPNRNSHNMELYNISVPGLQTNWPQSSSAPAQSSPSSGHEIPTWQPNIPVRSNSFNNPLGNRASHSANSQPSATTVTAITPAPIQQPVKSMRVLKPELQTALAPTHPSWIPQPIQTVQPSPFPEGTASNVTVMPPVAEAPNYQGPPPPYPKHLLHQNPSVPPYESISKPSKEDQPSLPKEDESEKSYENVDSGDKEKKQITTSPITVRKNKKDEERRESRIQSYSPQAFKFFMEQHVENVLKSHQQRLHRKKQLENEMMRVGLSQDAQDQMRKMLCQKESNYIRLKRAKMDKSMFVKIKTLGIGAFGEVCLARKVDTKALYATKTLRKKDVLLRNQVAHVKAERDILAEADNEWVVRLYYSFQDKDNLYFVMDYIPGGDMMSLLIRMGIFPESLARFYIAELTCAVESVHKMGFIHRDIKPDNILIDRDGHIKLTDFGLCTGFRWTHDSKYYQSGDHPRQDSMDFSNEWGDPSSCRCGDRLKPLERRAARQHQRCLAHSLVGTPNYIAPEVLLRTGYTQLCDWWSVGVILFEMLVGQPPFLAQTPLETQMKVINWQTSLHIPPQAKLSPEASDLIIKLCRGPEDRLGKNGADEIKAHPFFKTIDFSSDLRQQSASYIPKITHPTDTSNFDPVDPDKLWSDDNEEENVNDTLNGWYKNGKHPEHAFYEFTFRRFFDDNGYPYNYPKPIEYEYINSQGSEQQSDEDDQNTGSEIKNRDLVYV
Description: Inhibition of LATS1 Lys2 labeling site in human A-375 cells at 0.5 uM by KiNativ Profiling analysis relative to control. In kind it is cell-based.

In experiment [6] the target is Serine/threonine-protein kinase WNK1 (Homo sapiens) (UniProt Q9H4A3). Put plainly: Inhibition of Wnk1 ACT labeling site in human Huh-7 cell lysate at 1 uM by KiNativ Profiling analysis relative to control. The format is subcellular.
The target in experiment [7] is T2, Serine/threonine-protein kinase Sgk3 (Homo sapiens) (UniProt Q96BR1).
T2 sequence (whole entry): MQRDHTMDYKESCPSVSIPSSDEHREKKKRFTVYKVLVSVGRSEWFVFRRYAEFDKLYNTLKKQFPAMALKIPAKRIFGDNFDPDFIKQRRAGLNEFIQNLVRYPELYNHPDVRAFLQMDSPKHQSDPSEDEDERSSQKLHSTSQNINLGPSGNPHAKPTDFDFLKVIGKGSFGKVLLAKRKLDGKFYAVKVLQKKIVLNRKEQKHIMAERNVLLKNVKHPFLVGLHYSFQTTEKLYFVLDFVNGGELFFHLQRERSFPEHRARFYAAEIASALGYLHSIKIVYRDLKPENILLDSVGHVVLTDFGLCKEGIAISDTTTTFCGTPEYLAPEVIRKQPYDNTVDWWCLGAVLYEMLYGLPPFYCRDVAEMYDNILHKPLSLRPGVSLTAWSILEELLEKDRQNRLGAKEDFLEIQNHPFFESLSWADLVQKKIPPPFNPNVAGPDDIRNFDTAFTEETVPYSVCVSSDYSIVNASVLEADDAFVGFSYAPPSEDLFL
Put plainly: Inhibition of SGK3 Lys2 labeling site in human Huh-7 cell lysate at 1 uM by KiNativ Profiling analysis relative to control. The format is subcellular.

Experiment [8] has as its target Serine/threonine-protein kinase 25 (Homo sapiens) (UniProt O00506). Description: Inhibition of YSK1 Lys2 labeling site in human Huh-7 cells at 1 uM by KiNativ Profiling analysis relative to control. The format is cell-based.

Sequence of Serine/threonine-protein kinase WNK1 (Homo sapiens) (Q9H4A3 whole entry, looked up): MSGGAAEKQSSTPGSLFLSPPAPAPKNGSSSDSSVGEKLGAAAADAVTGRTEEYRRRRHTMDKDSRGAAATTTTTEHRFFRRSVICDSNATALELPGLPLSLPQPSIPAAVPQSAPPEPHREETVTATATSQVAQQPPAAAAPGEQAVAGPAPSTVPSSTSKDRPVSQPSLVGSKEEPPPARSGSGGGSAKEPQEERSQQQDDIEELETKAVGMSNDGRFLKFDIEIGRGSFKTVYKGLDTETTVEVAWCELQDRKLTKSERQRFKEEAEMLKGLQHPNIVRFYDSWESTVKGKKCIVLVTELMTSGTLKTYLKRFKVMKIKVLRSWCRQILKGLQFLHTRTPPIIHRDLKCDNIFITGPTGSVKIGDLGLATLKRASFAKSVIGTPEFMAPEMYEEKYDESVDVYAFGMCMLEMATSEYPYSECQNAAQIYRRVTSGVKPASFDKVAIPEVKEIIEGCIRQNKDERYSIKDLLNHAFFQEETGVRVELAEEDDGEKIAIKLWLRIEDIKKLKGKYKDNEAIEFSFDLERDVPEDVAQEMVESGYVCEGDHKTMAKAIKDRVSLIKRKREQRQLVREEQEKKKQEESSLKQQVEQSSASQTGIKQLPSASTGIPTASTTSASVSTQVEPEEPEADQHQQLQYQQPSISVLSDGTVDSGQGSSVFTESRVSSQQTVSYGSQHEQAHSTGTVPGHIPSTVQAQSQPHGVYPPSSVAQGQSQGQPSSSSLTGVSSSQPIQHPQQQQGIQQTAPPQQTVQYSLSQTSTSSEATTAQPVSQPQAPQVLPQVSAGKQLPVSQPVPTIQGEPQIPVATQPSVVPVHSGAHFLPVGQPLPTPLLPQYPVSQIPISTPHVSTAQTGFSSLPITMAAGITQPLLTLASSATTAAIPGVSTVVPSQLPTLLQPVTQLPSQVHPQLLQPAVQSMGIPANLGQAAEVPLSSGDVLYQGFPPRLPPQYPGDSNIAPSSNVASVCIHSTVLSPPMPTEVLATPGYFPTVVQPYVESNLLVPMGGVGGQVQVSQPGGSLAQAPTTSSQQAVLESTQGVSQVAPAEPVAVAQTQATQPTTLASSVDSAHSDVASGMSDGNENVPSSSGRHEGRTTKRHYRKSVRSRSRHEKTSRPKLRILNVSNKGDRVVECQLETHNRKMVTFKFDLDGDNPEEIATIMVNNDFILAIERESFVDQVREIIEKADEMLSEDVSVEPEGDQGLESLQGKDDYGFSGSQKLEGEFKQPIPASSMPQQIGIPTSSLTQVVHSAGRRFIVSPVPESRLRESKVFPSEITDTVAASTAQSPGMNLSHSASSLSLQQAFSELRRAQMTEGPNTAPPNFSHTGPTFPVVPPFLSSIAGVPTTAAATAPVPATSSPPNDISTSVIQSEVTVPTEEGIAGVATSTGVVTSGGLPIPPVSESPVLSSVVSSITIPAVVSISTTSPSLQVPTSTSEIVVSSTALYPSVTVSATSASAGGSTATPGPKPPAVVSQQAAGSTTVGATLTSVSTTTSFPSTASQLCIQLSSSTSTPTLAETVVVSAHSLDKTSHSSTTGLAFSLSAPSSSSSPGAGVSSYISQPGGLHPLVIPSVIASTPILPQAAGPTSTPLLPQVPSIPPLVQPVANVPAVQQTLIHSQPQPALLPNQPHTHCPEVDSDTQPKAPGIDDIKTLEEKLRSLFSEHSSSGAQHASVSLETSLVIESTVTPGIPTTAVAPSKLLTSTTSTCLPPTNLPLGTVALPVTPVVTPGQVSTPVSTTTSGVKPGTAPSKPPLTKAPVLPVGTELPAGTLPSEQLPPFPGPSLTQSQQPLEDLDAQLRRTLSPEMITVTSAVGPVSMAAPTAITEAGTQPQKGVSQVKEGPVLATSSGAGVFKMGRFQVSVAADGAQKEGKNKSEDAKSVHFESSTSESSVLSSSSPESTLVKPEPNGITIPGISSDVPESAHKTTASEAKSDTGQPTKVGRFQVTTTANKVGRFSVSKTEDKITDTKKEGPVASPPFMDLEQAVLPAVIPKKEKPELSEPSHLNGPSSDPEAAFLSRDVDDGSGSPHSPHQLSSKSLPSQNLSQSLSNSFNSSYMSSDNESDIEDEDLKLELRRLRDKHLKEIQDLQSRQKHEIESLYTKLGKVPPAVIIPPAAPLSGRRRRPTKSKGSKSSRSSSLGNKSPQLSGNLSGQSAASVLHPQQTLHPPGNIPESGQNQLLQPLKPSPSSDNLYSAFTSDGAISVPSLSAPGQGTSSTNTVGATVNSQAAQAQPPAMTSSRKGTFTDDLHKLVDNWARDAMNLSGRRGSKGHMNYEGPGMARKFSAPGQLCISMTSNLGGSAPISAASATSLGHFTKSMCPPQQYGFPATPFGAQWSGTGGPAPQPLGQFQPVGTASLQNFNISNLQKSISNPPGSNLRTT
Sequence of Mitogen-activated protein kinase kinase kinase kinase 4 (O95819 2-1239 limits assumed): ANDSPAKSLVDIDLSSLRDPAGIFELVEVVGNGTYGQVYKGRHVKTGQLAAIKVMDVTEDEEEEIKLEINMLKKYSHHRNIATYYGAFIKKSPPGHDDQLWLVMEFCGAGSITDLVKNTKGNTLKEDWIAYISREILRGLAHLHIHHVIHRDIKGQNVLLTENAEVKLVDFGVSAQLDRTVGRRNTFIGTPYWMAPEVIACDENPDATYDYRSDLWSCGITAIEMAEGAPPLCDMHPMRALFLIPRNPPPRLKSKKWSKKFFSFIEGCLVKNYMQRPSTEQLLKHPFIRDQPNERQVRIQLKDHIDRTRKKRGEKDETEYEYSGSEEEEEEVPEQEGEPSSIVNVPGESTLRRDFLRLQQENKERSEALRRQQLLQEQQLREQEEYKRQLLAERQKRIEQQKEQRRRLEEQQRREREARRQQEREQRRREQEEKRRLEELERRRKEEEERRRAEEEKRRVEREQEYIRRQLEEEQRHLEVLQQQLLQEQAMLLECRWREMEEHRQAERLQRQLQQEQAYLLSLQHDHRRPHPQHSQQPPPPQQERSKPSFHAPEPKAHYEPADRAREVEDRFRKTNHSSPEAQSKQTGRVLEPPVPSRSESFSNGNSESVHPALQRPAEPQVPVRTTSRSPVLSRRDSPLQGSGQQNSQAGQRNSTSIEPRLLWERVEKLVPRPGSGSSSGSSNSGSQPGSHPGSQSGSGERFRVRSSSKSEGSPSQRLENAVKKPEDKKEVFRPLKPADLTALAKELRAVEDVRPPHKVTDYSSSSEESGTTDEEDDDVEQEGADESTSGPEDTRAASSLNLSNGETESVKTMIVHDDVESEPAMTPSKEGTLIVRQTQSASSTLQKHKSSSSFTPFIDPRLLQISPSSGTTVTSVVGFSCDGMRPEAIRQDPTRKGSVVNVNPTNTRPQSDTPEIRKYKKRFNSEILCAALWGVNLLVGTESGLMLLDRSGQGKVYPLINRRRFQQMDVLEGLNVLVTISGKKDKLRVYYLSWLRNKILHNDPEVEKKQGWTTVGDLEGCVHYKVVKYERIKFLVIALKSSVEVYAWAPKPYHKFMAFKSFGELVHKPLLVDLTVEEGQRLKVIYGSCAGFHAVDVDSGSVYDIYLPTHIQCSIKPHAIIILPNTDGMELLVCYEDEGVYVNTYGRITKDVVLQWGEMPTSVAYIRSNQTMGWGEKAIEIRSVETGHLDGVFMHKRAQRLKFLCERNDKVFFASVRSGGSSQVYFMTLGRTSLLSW
Sequence of Insulin-like growth factor 1 receptor (Homo sapiens) (P08069 31-736 limits assumed): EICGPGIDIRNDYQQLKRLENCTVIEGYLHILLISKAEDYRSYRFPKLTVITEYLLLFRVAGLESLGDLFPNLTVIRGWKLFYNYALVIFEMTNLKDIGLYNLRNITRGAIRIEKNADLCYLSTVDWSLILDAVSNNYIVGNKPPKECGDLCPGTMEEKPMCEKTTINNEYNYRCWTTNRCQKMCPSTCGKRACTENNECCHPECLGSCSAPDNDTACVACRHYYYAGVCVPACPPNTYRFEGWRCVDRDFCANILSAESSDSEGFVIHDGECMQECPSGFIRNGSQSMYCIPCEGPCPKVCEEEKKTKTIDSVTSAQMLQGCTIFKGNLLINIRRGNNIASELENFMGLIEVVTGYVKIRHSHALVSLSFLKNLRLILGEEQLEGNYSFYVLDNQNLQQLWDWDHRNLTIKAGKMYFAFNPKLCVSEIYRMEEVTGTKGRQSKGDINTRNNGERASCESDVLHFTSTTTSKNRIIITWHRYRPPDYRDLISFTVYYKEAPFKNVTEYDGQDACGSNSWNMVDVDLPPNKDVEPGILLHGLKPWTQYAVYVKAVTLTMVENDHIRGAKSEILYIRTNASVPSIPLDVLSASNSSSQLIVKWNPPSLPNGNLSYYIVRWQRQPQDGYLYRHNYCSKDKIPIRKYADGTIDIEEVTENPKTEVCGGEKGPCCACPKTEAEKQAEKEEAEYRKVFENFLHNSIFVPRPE
Sequence of Insulin-like growth factor 1 receptor (Homo sapiens) (P08069 741-1367 limits assumed): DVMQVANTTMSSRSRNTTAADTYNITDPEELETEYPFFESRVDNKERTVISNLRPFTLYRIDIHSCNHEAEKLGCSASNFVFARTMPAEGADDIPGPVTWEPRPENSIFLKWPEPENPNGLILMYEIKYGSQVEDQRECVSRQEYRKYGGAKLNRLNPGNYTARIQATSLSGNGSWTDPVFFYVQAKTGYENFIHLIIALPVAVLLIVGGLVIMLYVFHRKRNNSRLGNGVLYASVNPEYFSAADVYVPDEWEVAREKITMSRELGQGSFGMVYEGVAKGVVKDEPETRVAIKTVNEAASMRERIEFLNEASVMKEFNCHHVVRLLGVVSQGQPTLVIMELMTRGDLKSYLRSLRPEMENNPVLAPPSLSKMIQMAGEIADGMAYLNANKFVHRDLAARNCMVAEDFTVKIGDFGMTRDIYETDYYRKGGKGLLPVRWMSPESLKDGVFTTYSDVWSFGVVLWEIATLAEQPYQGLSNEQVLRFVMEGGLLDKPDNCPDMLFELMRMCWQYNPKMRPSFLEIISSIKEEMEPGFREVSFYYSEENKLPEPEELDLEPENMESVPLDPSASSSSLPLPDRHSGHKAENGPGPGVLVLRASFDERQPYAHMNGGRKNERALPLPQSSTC

One may read the inhibition as the relative decrease from the control value, in per cent. By residual activity is commonly meant the signal under treatment as a percentage of the control signal. A low value points to little activity left. `CCN1CCN(Cc2ccc(NC(=O)c3ccc(C)c(/C=C/c4cnc5[nH]ccc5c4OC)c3)cc2C(F)(F)F)CC1`: the inhibition in experiment [1] stood at 1.8%. In experiment [2], this compound registered a residual activity of 100%.

Consider `CCN1CCN(Cc2ccc(NC(=O)c3ccc(C)c(Oc4ccnc5[nH]ccc45)c3)cc2C(F)(F)F)CC1`, for which the residual activity in experiment [3] is 0.2%. For the same compound, the inhibition entry in experiment [4] was “inactive”. Also, the inhibition in experiment [5] is -1.1%.

For `CNc1cc(Oc2cc(C(=O)Nc3cc(N4CCN(C)CC4)cc(C(F)(F)F)c3)ccc2C)ncn1`, the inhibition is -6.9% in experiment [6], 13.3% in experiment [7] and 25.2% in experiment [8].
